Reference: patent US20180133211A1, “METHODS AND MATERIALS FOR PROMOTING BONE FORMATION” (Mayo Foundation for Medical Education and Research, priority 2015, published 2018)

What was measured:
[1] = tested on: Runx2 protein in MC3T3-E1 cells; test: Runx2 immunoblotting; type: cell-based, mouse; conditions: MC3T3-E1, 3 μM, after both 24 hours and 14 days
Method: Whole cell protein extracts were prepared using SDS sample buffer (2% SDS, 100 mM β-mercaptoethanol and 125 mM Tris-HCl, pH=6.8) and heated at 95° C. for 5 minutes. To obtain supernatant protein extracts, cell medium was collected, and proteins were precipitated with 50% trichloroacetic acid at 4° C. for 1 hour, concentrated by centrifugation, neutralized with PBS, and dissolved in SDS sample buffer.
For immunoblotting analysis, 15 μg of protein extracts were separated on 10% SDS poly-acryl amide gels, transferred to nitrocellulose membranes (Millipore), and blocked overnight with 10% blocking reagent (Roche) in TN buffer (50 mM Tris and 125 mM NaCl, pH=8.0). The following primary antibodies were used: rabbit, anti-Runx2 (sc-10758, Santa Cruz Biotechnologies, Santa Cruz, Calif.) and rabbit, anti-β-Actin (#4967, Cell Signaling, Danvers, Mass., USA). Washing was performed with TN buffer containing 0.01% Tween. Binding of the secondary antibody (anti-rabbit IgG/anti-mouse IgG horseradish peroxidase-coupled) (Roche) diluted 1:10,000 in 10% blocking solution followed by detection with the BM chemo-luminescence immunoblotting kit (Roche) was carried out as described by the supplier. Chemo-luminescence was measured with an image acquisition system (Vilber Lourmat, Marne-la-Vallée, France). Measurements are given as means of 3 immuno-blots, and representative blots are shown.

[2] = tested on: BMSCs; test: RT-qPCR mRNA expression; type: cell-based, mouse
Method: Mouse bone marrow mesenchymal stem cells were isolated from aseptically dissected long bones of 6-week old C57BL/6 mice (Himberg, Austria). The marrow cavities were flushed with sterile medium using a 25-gauge needle, and the culture was established in α-MEM supplemented with 10% FCS and […]. After 48 hours of culture at 5% CO2 and 37° C., the non-adherent cells were removed by gentle rinsing with PBS. At confluence, cells were harvested and seeded at a density of 3,000/cm^2 for cell experiments. […]
Total RNA was extracted using the SV Total RNA Isolation kit (Promega) following the supplier's instructions. cDNA was synthesized from about 0.5 μg RNA using the First Strand cDNA Synthesis kit (Roche) as described by the supplier. The resulting cDNAs were subjected to quantitative PCR amplification with a real-time cycler using the QUANTITECT™ SYBR® Green PCR Kit (Qiagen, Hilden, Germany) for the genes Alpl, Fas, Lox, Tet1, Tet2, and TAQMAN® Gene expression Master Mix (Applied Biosystems, Foster City, Calif., USA) for measuring Runx2, Bglap2, Colla1, Tnfsf11, and 18S rRNA expression (for primers, see Table 1). […] All RT-qPCR assays were performed in triplicate, and expression was evaluated using the comparative quantification method (Pfaffl, Nucleic Acids Res., 29:e45 (2001)).

[3] = Tolerability of DL-SFN injections in mice; type: in vivo, mouse; conditions: 7.5 mM DL-SFN, 200 μL intraperitoneally every other day for five weeks
Method: Analysis of SFN on mice was performed using a protocol similar to that described elsewhere (Kong et al., Arthritis Rheum., 62:159-170 (2010)). In the experimental setting herein, eight week old sham operated or ovariectomized (OVX) C57B16/J female mice were purchased from Charles River laboratories. Mice were injected with 7.5 mM DL-SFN (200 μL of SFN at a concentration of 63.8 mg/mL/kg dissolved in ethanol and further diluted in PBS) intraperitoneally every other day for five weeks. Control mice received vehicle alone.

[4] = Body and spleen weight in GSK126 in vivo studies; set-up: species or system mouse
Method: Female C57BL/6 mice (Harlan Laboratories) were maintained on a 12-hour light/12-hour dark cycle and were permitted ad libitum access to food and water. For efficacy studies, 6-week old mice received daily intraperitoneal (IP) injections of GSK126 at 15 mg/kg, 50 mg/kg, or vehicle (DMSO) in 20% Captisol adjusted to pH 4-4.5 with IN acetic acid (McCabe et al., Nature, 492:108-112 (2012)) for 5 weeks.
The dosage, delivery schedule, and administration route were similar to those described elsewhere (McCabe et al., Nature, 492:108-112 (2012)). Animals were weighed daily. To label mineralizing bone surfaces, mice received subcutaneous injections of calcein (10 mg/kg) 5 days and 24 hours before euthanasia.
The effects of GSK126 administration on the skeleton was evaluated in an estrogen-deficient ovariectomy (OVX) model. At about 12 weeks of age, female C57BL/6 mice underwent either sham or OVX surgeries. The following day, animals received daily IP injections of GSK126 or vehicle (DMSO) at 50 mg/kg body weight for 6 weeks as described herein. To label mineralizing bone surfaces and study bone formation rates, mice received subcutaneous injections of tetracycline (25 mg/kg) 14 days prior sacrifice and calcein (10 mg/kg) at 5 days and 24 hours before euthanasia.

SMILES	Runx2 protein expression [1]	Bglap2 mRNA expression [2]	Runx2 mRNA expression ([2]; 3 μM)	apparent adverse effects (weight loss, physical appearance, behavior) [3]	body or spleen weight at sacrifice ([4]; C57bl/6 mice, 15 mg/kg or 50 mg/kg GSK126 for 5 weeks vs vehicle)	Body and spleen weights ([4]; mouse ovariectomy model, six weeks of daily injections, between surgical and treatment groups)
C[S+]([O-])CCCCN=C=S (racemic) [DL-SFN]	significant increase	up regulated	stimulates	did not show apparent adverse effects	–	–
CC[C@H](C)n1cc(C)c2c(C(=O)NCc3c(C)cc(C)[nH]c3=O)cc(-c3ccc(N4CCNCC4)nc3)cc21 [GSK126, N-[(1,2-dihydro-4,6-dimethyl-2-oxo-3-pyridinyl)methyl]-3-methyl-1-[(1S)-1-methylpropyl]-6-[6-(1-piperazinyl)-3-pyridinyl]-1H-indole-4-carboxamide]	–	–	–	–	No changes	similar
